Assay results: US20020127287A1, “Treatment of lyso paf-mediated disorders with lyso paf or paf antagonists and procedure for determining their efficacy” (priority 1990, published 2002)

Key:
acetylhydrolase = acetylhydrolase activity, kinetic constants; assay type: biochemical, human
Protocol: Acetylhydrolase activity was measured in lysates of resting platelets or platelets stimulated with thrombin (0.5 IU/ml, 1 min, 37° C.), in supernatants of thrombin-activated platelets with or without acid-treated (inactivation of acetylhydrolase) plasma and in native plasma. Samples were incubated for 10 min at 37° C. in the presence of 0.1 μCi [^3H]acetyl paf and concentrations of unlabeled paf varying from 5 to 35 μM. The microenvironment modulates the acetylhydrolase indicating the origin of plasma acetylhydrolase from activated platelets.

human platelets = test: acetylhydrolase release from activated platelets; assay type: cell-based; settings: Thrombin 0.5 IU/ml; for acetylhydrolase release: Paf 500 nM
Protocol: (§2) Results are expressed as mean±S.D. or S.E. and statistics were performed using the “Mann Whitney” test (n=3, n=5 or n=6 as indicated).

[1] = tested on: lyso paf receptors on neutrophils (PMN); test: [^3H]lyso paf binding to neutrophils (PMN); parameters: species or system human; settings: 20° C.
Protocol: (§3) Neutrophils (PMN) were prepared from venous blood (40 ml) from normal donors, anticoagulated with citric acid dextrose (7:1, v/v) was sedimented for 30 to 45 min in gelatin 0.3% final (Plasmagel®). Twenty ml of supernatant were layered on 10 ml Ficoll Hypaque (d=1.077) and centrifuged (400×g, 20 min, 20° C.). The cell pellet containing PMN (95%) was resuspended in 500 μl Tyrode's buffer (pH=7.4). Erythrocyte lysis was performed by adding 3 volumes of distilled water for 40 sec. followed by 1 volume NaCl (3.5%, w/v). PMN were then washed twice in Tyrode's buffer (centrifugation at 370×g at 20° C. for 10 min). Cell concentration was adjusted to 5×10^7 per ml.
The binding of [^3H]lyso paf (0.325-0.5 nM) was measured after 30 min incubation at 20° C. in the absence or presence of an excess of unlabeled lyso paf (500 nM), paf (500 nM) or WEB 2086 (1 μM). The effect of low dose paf (5 nM) on the binding of [^3H]lyso paf was also investigated. […] After the binding procedure, cells were separated from their suspending medium by filtration in a millipore vacuum system with GF/C filters. Filters were washed with 10 ml Tyrode's buffer at 4° C. and radioactivity was assessed by scintillation. Cell-bound radioactivity on the filters after subtraction of blanks (filter-bound radioactivity in the absence of cells) was expressed in fmol [^3H]paf bound per 2.5×10^6 PMN or 2.5×10^5 eosinophils.

platelets = test: paf-mediated platelet aggregation; assay type: cell-based; settings: BSA […]; for EC50: Platelet, 0.05 h, 3 min aggregation
Protocol: as §2

eosinophils [2] = test: paf metabolism by intact eosinophils; assay type: in vitro ADME, human; settings: binding conditions
Protocol: Cells were then separated by vacuum filtration and phospholipids were extracted. Briefly, filters were placed in 500 μl water. […] High pressure liquid chromatography (HPLC) was performed using standard procedure with dichloromethane/methanol/water (50:50.5, by vol) and eluted with a flow rate of 1 ml/min. The radioactivity was measured in the fractions after subtraction of the background values.

[3] = target: T1, paf receptors on neutrophils (PMN) (Homo sapiens, UniProt P25105); test: [^3H]paf binding to intact human neutrophils (PMN); settings: for [^3H]paf binding: 20° C., 30 min
T1 construct: Neutrophils (PMN) were prepared from venous blood (40 ml) from normal donors; endogenous in cells; host or cells: intact neutrophils (PMN) from venous blood of normal donors
Protocol: as §3
(§4) Binding studies were performed using, for example, intact neutrophils (PMN) or intact human blood eosinophils. PMN (2.5×10^6) or eosinophils (2.5×10^5) were suspended in 500 μl Tyrode's buffer supplemented with 1.3 mM CaCl2, 1 mM MgCl2 and 0.25% (v/v) fatty acid-free bovine serum albumin (BSA, w/v) were incubated with [^3H]paf (0.325-6.5 nM) either for 30 min at 20° C. or for 20 hrs at 4° C. Non-specific binding was assessed with the unlabeled ligands either paf (500 nM) or the receptor antagonist WEB 2086 (1 μM or 400 nM).
In a second set of experiments, [^3H]paf binding was performed by adding 3.25 nM [^3H]paf to PMN, simultaneously with low dose (5 to 50 nM) of paf, lyso paf, the enantiomer of paf or 2-lyso phosphatidylcholine (LPC) for 30 min at 20° C. [^3H]paf binding was also measured in the presence of the phorbol ester 4-phorbol-12-myristate-13-acetate (PMA, 1 to 16 nM) either added simultaneously with [^3H]paf or preincubated 15 min at 37° C. previously. […] After the binding procedure, cells were separated from their suspending medium by filtration in a millipore vacuum system with GF/C filters. Filters were washed with 10 ml Tyrode's buffer at 4° C. and radioactivity was assessed by scintillation. Cell-bound radioactivity on the filters after subtraction of blanks (filter-bound radioactivity in the absence of cells) was expressed in fmol [^3H]paf bound per 2.5×10^6 PMN or 2.5×10^5 eosinophils.

eosinophils [4] = test: cytosolic free calcium (fura-2) in eosinophils; assay type: cell-based, human; settings: 1-100 nM; Ca^2+ free buffer, EGTA 2 mM
Protocol: (§1) The concentration of cytosolic free calcium [Ca^2+]i was measured using the [Ca^2+]i indicator fura-2-acetoxymethyl ester (fura-2). […] The spectrofluorophotometer was programmed to shuttle between the two excitation wavelengths of 340 and 380 nm every 5 sec while keeping the emission wavelength of 505 nm. […] Background values were subtracted from all data. The intracellular Ca^2+ was calculated with the formula [[…] is KD of the fura-2 multiplied with the quotient of the fluorescence at 380 nm from the minimal and the maximal [Ca^2+]i fluorescence.

PMN = test: cytosolic free calcium (fura-2) in PMN; assay type: cell-based, human; settings: 1 to 500 nM; CaCl2 1.3 mM or EGTA 2 mM
Protocol: as §1

U 937 cells = test: cAMP levels of U 937 cells; assay type: cell-based
Protocol: U 937 cells were grown in stationary suspension culture in RPMI 1640 containing 10% fetal calf serum (FCS) and 2 mM L-glutamine at 37° C. in a humidified atmosphere of 5% CO2 and 95% air. The cells were diluted with fresh medium (1/10, v/v) twice a week. After three days in culture, U 937 cells were centrifuged (1000×G for 10 min) and incubated for 24 hrs in RPMI 1640 medium containing 10% CPSR 1 (delipidated FCS) and 2 mM L-glutamine. Subsequently the cells were incubated in the delipidated FCS medium containing cholesterol (10-60 μg/ml), as compared with solvent alone (ethanol, 0.5% v/v, final concentration) for (2, 4 or 24 hrs).
Cyclic AMP in supernatants from cholesterol-treated and control cells, were measured by the Rianen [^125I]cAMP-RIA Kit. Briefly, cholesterol (60 μg/ml, 24 hrs) or cholesterol vehicle (ethanol) were added after 24 hrs cell incubation in delipidated FCS medium. Cells were subsequently washed three times and resuspended (5×10^6, final concentration) in Hanks Hepes (HH)-buffer, pH 7.4 with ascorbinic acid (10 mM) and cAMP-phosphodiesterase inhibitor IBMX (1 mM). Cell suspension (100 μl) was added to 400 μl of the cAMP buffer for 30 min at 20° C. […] Values are from one experiment (representative of three) expressed as pmol cAMP per 10^6 cells. Total proteins were measured by standard procedure.

[5] = target: T2, paf receptors on eosinophils (Homo sapiens, UniProt P25105); test: [^3H]paf binding to intact human eosinophils; settings: for specific [^3H]paf binding: 20° C., 30 min
T2 construct: endogenous in cells; host or cells: intact human blood eosinophils (about 96% pure)
Protocol: Eosinophils were also prepared under sterile conditions. Blood (400 ml) was mixed with 10% (v/v) dextran. The supernatant was carefully deposited on a metrizoate/ficoll suspension (d=1.148) after sedimentation of red blood cells and centrifuged (400×g: 40 min). Erythrocyte lysis was performed by adding 3 v. of distilled water for 40 sec, followed by 1 v. NaCl (3.5%, w/v). Cells were suspended in 500 μl pH 7.4 Tyrode's buffer, centrifuged (1900 rpm×10 min) and resuspended (5×10^6 cells/ml) in Tyrode's (0.25% BSA) without Ca^2+. The eosinophils fraction at 1×10^6 cells/ml contained 96±5% eosinophils, 3±3% neutrophils, 1±2% mononuclear cells and no free platelets (mean±s.d., n=3).
as §4
Eosinophils were added to Tyrode's (0.25% BSA, 1.3 mM CaCl2, 1 mM MgCl2) containing [3H]paf (0.325-6.5 nM) in the absence or presence of unlabeled paf, lyso paf, enantio-paf or lyso-phosphatidylcholine (LPC) (5, 10, 50, 500 nM) and/or the specific paf receptor antagonist WEB 2086 (400 nM). After the binding procedure, cells were separated from their suspending medium by filtration in a millipore vacuum system with GF/C filters. Filters were washed with 10 ml Tyrode's buffer at 4° C. and radioactivity was assessed by scintillation. Cell-bound radioactivity on the filters after subtraction of blanks (filter-bound radioactivity in the absence of cells) was expressed in fmol [^3H]paf bound per 2.5×10^6 PMN or 2.5×10^5 eosinophils.

[6] = source of acetylhydrolase: (1) Platelets
[7] = source of acetylhydrolase: (2) Thrombin-activated platelets
[8] = source of acetylhydrolase: (3) Supernatant from (2)
[9] = source of acetylhydrolase: (4) Native plasma

T1 sequence (P25105 whole entry): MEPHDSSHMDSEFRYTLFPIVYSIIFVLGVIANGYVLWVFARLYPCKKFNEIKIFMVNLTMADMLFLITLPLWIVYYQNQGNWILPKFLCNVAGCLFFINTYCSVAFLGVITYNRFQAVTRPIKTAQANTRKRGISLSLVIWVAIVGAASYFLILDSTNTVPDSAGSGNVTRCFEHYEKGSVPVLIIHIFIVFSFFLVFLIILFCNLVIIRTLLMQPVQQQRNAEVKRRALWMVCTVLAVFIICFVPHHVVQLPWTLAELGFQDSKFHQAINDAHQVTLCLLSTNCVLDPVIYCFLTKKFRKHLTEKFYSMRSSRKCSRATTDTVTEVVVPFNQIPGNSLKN
T2 sequence (P25105 whole entry): as above

CCCCCCCCCCCCCCCCCCOC[C@H](COP(=O)([O-])OCC[N+](C)(C)C)OC(C)=O [paf, 1-octadecyl-2-acetyl-sn-glycero-3-phosphocholine]
Km (acetylhydrolase; [6]): 8.3 ± 1.5 µM | Vmax (acetylhydrolase; [6]): 0.3 nmol/min/mg prot. | Km (acetylhydrolase; [7]): 10.6 ± 1.5 µM | Vmax (acetylhydrolase; [7]): 0.3 nmol/min/mg prot. | Km (acetylhydrolase; [8]): 7.9 ± 1.5 µM | Vmax (acetylhydrolase; [8]): 1.4 nmol/min/mg prot. | Km (acetylhydrolase; [9]): 5.3 ± 0.5 µM | Vmax (acetylhydrolase; [9]): 1.4 nmol/min/mg prot. | released of the total acetylhydrolase (human platelets; paf 500 nM, mean±S.E., n=3): 10.3±1.5% | acetylhydrolase release (human platelets; stimulation 0 sec): 1.0 ± 1.0 percentage of the total content of acetylhydrolase | acetylhydrolase release (human platelets; stimulation 15 sec): 8.2 ± 3.2 percentage of the total content of acetylhydrolase | acetylhydrolase release (human platelets; stimulation 30 sec): 7.8 ± 2.6 percentage of the total content of acetylhydrolase | acetylhydrolase release (human platelets; stimulation 60 sec): 9.5 ± 4.0 percentage of the total content of acetylhydrolase | acetylhydrolase release (human platelets; stimulation 120 sec): 10.0 ± 1.4 percentage of the total content of acetylhydrolase | acetylhydrolase release (human platelets; stimulation 180 sec): 12.6 ± 3.8 percentage of the total content of acetylhydrolase | acetylhydrolase release (human platelets; stimulation 300 sec): 10.3 ± 1.5 percentage of the total content of acetylhydrolase | effect of unlabeled ligand on [^3H]lyso paf binding ([1]; excess unlabeled paf or lyso paf 500 nM, WEB 2086 1 μM): increased | binding of […] [^3H]lyso paf ([1]; paf 5 nM, increased from 197.0±4.5): 255.0±10.5 fmol per 2.5×10^6 PMN | concentration for maximal aggregation (platelets; 20° C.): 2.6 ± 0.5 nM | concentration for maximal aggregation (platelets; 37° C.): 5.0 ± 0.5 nM | EC50 (platelets; 20° C.): 400 ± 100 pM | EC50 (platelets; 37° C.): 900 ± 200 pM | metabolism of added paf (eosinophils [2]): did not metabolize | Kd ([3]; 4° C.): 440 pM | binding sites (high affinity) on neutrophils ([3]; 4° C.): 3612 binding sites | [^3H]paf binding ([3]; Add. 5 nM, WEB 2086 1 μM): 376 ± 21 fmol [^3H]paf bound per 2.5×10^6 PMN | [^3H]paf binding ([3]; paf 5 nM, preincubation 0 min at 37° C.): 414 fmol [^3H]paf bound per 2.5×10^6 PMN | [^3H]paf binding ([3]; paf 5 nM, preincubation 15 min at 37° C.): 331 fmol [^3H]paf bound per 2.5×10^6 PMN | effect of excess unlabeled ligand on [^3H]paf binding ([3]; paf 500 nM, WEB 2086 1 μM): inhibited | [Ca^2+]i rise in response to agonist (eosinophils [4]): concentration-dependent elevation of [Ca^2+]i | cytoplasmic Ca^2+ flux in response to agonist (PMN): concentration-dependent entry of Ca^2+ | cAMP in response to paf (U 937 cells): dose dependent fall in cAMP | binding sites per eosinophil [5]: 8.6×10^4 sites per eosinophil | specific [^3H]paf binding, maximal plateau values ([5]; 20 hrs at 4° C., assessed with unlabeled paf 500 nM or WEB 2086 400 nM): 14.0±9.0 fmol per 2.5×10^5 cells | Kd ([5]; 20 hrs at 4° C., read-out: binding affinity (Kd) on eosinophils): 5500 pM | specific [^3H]paf binding ([5]; addition 5 nM, WEB 2086 400 nM): 3.8 ± 5.0 fmol per 2.5×10^5 cells | specific [^3H]paf binding ([5]; addition 10 nM, WEB 2086 400 nM): 4.3 ± 2.9 fmol per 2.5×10^5 cells | specific [^3H]paf binding ([5]; addition 50 nM, WEB 2086 400 nM): 7.2 ± 5.4 fmol per 2.5×10^5 cells | specific [^3H]paf binding ([5]; addition 500 nM): 12.5 ± 6.9 fmol per 2.5×10^5 cells
